From publication PMC3642319, “Biochemical and Immunological Characterization of Toxoplasma gondii Macrophage Migration Inhibitory Factor” (The Journal of Biological Chemistry, 2013) come the findings set out here.

The target in data set [1] is T1, HsMIF (Homo sapiens, UniProt P14174).
T1 construct: gene MIF; commercial recombinant human MIF (R&D Systems)
T1 sequence (P14174 2-115): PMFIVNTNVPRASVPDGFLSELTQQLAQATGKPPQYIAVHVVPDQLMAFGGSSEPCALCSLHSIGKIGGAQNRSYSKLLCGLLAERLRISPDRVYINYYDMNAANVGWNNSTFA
Briefly: dopachrome tautomerase assay, absorbance at […] nm. It is filed as biochemical.

Data set [2] deals with COC(=O)[C@@H]1CC2=CC(=O)C(=O)C=C2N1. Put plainly: purified protein. Particulars: L-DOPA methyl ester (1-20 mM) oxidised in situ with sodium periodate, sodium phosphate pH 6.2, 1 mM EDTA, 37 °C, paper names the substrate L-DOPA methyl ester.

One may read the inhibition as how much of the control response was suppressed. Usually Km stands for the substrate concentration at which the rate is half of its maximum.

`COC(=O)CC1CC(c2ccc(O)cc2)=NO1` (racemic) [ISO-1] had an inhibition at 10 µM in data set [1] of 60%.

Regarding TgMIF (Toxoplasma gondii), the Km in data set [2] is 9.6 mM.
